Assay in all cases: 50% growth inhibitory concentration (IC50) determination assay
Format in all cases: cell-based
Holding throughout (settings): Iso-Sensitest broth, 0.098 = detection limit

One experiment has as its system A. baumannii (ATCC17978). Here is the method:
(§1) Stock compounds in DMSO were serially two-fold diluted (range from 50 to 0.097 μM final concentration) in 384 wells microtiter plates and inoculated with 49 μL the bacterial suspension in Iso-Sensitest broth medium to have a final cell concentration of ˜5×10^5 CFU/mL in a final volume/well of 50 μL/well. Microtiter plates were incubated at 35±2° C. Bacterial cell growth was determined with the measurement of optical density at λ=600 nm each 20 minutes over a time course of 16 h. […] GP-6 (Example 4.131 disclosed in WO 2012/125746 A1) was used as the reference compound in Table 6-8. […] The data of IC50 over S. aureus (ATCC29213), K. pneumoniae (ATCC10031), and A. baumannii (ATCC17978) are illustrated in Table 6.

A further experiment concerns S. aureus (ATCC29213). Here is the method:
as §1

The test system of experiment [1] is K. pneumoniae (ATCC10031). As for the experimental part:
as §1

Where [2] appears, read: Acinetobacter baumannii, ATCC17978, A. baumannii ATCC17978.

A value given as a limit tells only on which side of the number the result lay.

What is called IC50 is the midpoint of a concentration-inhibition curve. Low values mean higher potency, high ones lower potency.

On to `CNc1cc(F)c(F)c2c1[nH]c1ncc(-c3cnc4c(c3)c(=O)c(C(=O)O)cn4C3CCNC3)c(N3CCCC3)c12` (stereo not drawn) [Example 1.65], for which the IC50 in the experiment on A. baumannii (ATCC17978) (setting [2]) is 0.378 µM; with S. aureus (ATCC29213) (Staphylococcus aureus) it was below 0.098 µM; in experiment [1] (Klebsiella pneumoniae), below 0.098 µM.

Regarding `CNc1cc(F)cc2c1[nH]c1ncc(-c3cnc4c(c3)c(=O)c(C(=O)O)cn4C)c(N3CCSCC3)c12` [Example 1.66], the concentration for half-maximal inhibition (IC50) is 0.415 µM in the experiment on A. baumannii (ATCC17978) (setting [2]), below 0.098 µM with S. aureus (ATCC29213) (Staphylococcus aureus) and below 0.098 µM in experiment [1] (Klebsiella pneumoniae).

With `CNc1cc(F)cc2c1[nH]c1ncc(-c3cnc4c(c3)c(=O)c(C(=O)O)cn4CC(C)(C)N(C)C)c(N3CCOCC3)c12` [Example 1.69], the IC50 in the experiment on A. baumannii (ATCC17978) (setting [2]) was 0.438 µM; in the experiment on S. aureus (ATCC29213) (Staphylococcus aureus), below 0.098 µM; in experiment [1] (Klebsiella pneumoniae), below 0.098 µM.

Regarding `CNc1cc(F)cc2c1[nH]c1ncc(-c3cnc4c(c3)c(=O)c(C(=O)O)cn4C(C)CN(C)C)c(N3CCOCC3)c12` (stereo not drawn) [Example 1.70], the results for the IC50 (in the experiment with A. baumannii (ATCC17978) (setting [2]); in the experiment on S. aureus (ATCC29213) (Staphylococcus aureus); in experiment [1] (Klebsiella pneumoniae)) were 0.619 µM, below 0.098 µM and below 0.098 µM, respectively.

On to `CNc1cc(F)c(F)c2c1[nH]c1ncc(-c3cnc4c(c3)c(=O)c(C(=O)O)cn4NC)c(N(C)C)c12` [Example 1.72], for which the 50% inhibitory concentration (IC50) (in the experiment with A. baumannii (ATCC17978) (setting [2]); in the experiment with S. aureus (ATCC29213) (Staphylococcus aureus); in experiment [1] (Klebsiella pneumoniae)) was below 0.098 µM throughout.

On to `CCN(CC)CCn1cc(C(=O)O)c(=O)c2cc(-c3cnc4[nH]c5c(NC)cc(F)c(F)c5c4c3N3CCOCC3)cnc21` [Example 1.73], for which the IC50 was 0.238 µM in the experiment with A. baumannii (ATCC17978) (setting [2]), below 0.098 µM with S. aureus (ATCC29213) (Staphylococcus aureus) and below 0.098 µM in experiment [1] (Klebsiella pneumoniae).

Regarding `CNc1c(F)c(F)cc2c1[nH]c1ncc(-c3cnc4c(c3)c(=O)c(C(=O)O)cn4C3CCNC3)c(N3CCCC3)c12` (stereo not drawn) [Example 1.76], the concentration for half-maximal inhibition (IC50) in the experiment on A. baumannii (ATCC17978) (setting [2]) was 0.643 µM; in the experiment on S. aureus (ATCC29213) (Staphylococcus aureus), below 0.098 µM; in experiment [1] (Klebsiella pneumoniae) it was below 0.098 µM.

With `CNc1cc(F)c(F)c2c1[nH]c1ncc(-c3cnc4c(c3)c(=O)c(C(=O)O)cn4C)c(N3CCC[C@H]3CO)c12` [Example 1.77], the 50% inhibitory concentration (IC50) was 0.291 µM in the experiment with A. baumannii (ATCC17978) (setting [2]), below 0.098 µM in the experiment with S. aureus (ATCC29213) (Staphylococcus aureus) and 0.111 µM in experiment [1] (Klebsiella pneumoniae).

`CCC(Cn1cc(C(=O)O)c(=O)c2cc(-c3cnc4[nH]c5c(NC)cc(F)c(F)c5c4c3N3CCOCC3)cnc21)N(C)C` (stereo not drawn) [Example 1.79]: the 50% inhibitory concentration (IC50) in the experiment on A. baumannii (ATCC17978) (setting [2]) was 0.173 µM; in the experiment on S. aureus (ATCC29213) (Staphylococcus aureus), below 0.098 µM; in experiment [1] (Klebsiella pneumoniae) it was below 0.098 µM.

Take `CNc1cc(F)cc2c1[nH]c1ncc(-c3cnc4c(c3)c(=O)c(C(=O)O)cn4C3CCN(C)C3)c(N3CCOCC3)c12` (stereo not drawn) [Example 1.81]: the half-inhibitory concentration (IC50) was 0.164 µM in the experiment on A. baumannii (ATCC17978) (setting [2]), below 0.098 µM in the experiment with S. aureus (ATCC29213) (Staphylococcus aureus) and below 0.098 µM in experiment [1] (Klebsiella pneumoniae).

Regarding `CNc1cc(F)c(F)c2c1[nH]c1ncc(-c3cnc4c(c3)c(=O)c(C(=O)O)cn4Cc3cnco3)c(N(C)C)c12` [Example 1.87], the IC50 is 0.49 µM in the experiment with A. baumannii (ATCC17978) (setting [2]), below 0.098 µM with S. aureus (ATCC29213) (Staphylococcus aureus) and 0.122 µM in experiment [1] (Klebsiella pneumoniae).

Regarding `CNc1cc(F)c(F)c2c1[nH]c1ncc(-c3cnc4c(c3)c(=O)c(C(=O)O)cn4C3CCNC3)c(N3CCCC3)c12` (stereo not drawn) [Example 1.89], the half-maximal inhibitory concentration (IC50) with A. baumannii (ATCC17978) (A. baumannii ATCC17978) was 0.315 µM; in the experiment on S. aureus (ATCC29213), below 0.098 µM; in experiment [1] it was below 0.098 µM.

In the case of `CNc1cc(F)c(F)c2c1[nH]c1ncc(-c3cnc4c(c3)c(=O)c(C(=O)O)cn4NC3CCOCC3)c(N(C)C)c12` [Example 1.91], the IC50 was 0.237 µM in the experiment on A. baumannii (ATCC17978) (setting [2]), below 0.098 µM in the experiment on S. aureus (ATCC29213) (Staphylococcus aureus) and 0.165 µM in experiment [1] (Klebsiella pneumoniae).

On to `CNc1cc(F)c(F)c2c1[nH]c1ncc(-c3cnc4c(c3)c(=O)c(C(=O)O)cn4C3CC3)c(N(C)C)c12` [Example 1.95], for which the half-inhibitory concentration (IC50) in the experiment on A. baumannii (ATCC17978) (setting [2]) is 0.276 µM; in the experiment with S. aureus (ATCC29213) (Staphylococcus aureus), below 0.098 µM; in experiment [1] (Klebsiella pneumoniae), 0.282 µM.

Take `CNc1cc(F)c(F)c2c1[nH]c1ncc(-c3cnc4c(c3)c(=O)c(C(=O)O)cn4C)c(N3CCSCC3)c12` [Example 1.97]: the results for the half-maximal inhibitory concentration (IC50) (in the experiment with A. baumannii (ATCC17978) (setting [2]); with S. aureus (ATCC29213) (Staphylococcus aureus); in experiment [1] (Klebsiella pneumoniae)) were 0.507 µM, below 0.098 µM and 0.257 µM, respectively.

In the case of `CNc1cc(F)cc2c1[nH]c1ncc(-c3cnc4c(c3)c(=O)c(C(=O)O)cn4C)c(N3CCC(CN(C)C4CC4)C3)c12` (stereo not drawn) [Example 1.99], the results for the 50% inhibitory concentration (IC50) (in the experiment with A. baumannii (ATCC17978) (setting [2]); in the experiment on S. aureus (ATCC29213) (Staphylococcus aureus); in experiment [1] (Klebsiella pneumoniae)) were 0.771 µM, below 0.098 µM and below 0.098 µM, respectively.

As to `CNc1cc(F)cc2c1[nH]c1ncc(-c3cnc4c(c3)c(=O)c(C(=O)O)cn4C)c(N3CCC(C)(CN(C)C)C3)c12` (stereo not drawn) [Example 1.102], the IC50 is 0.134 µM in the experiment on A. baumannii (ATCC17978) (setting [2]), below 0.098 µM in the experiment with S. aureus (ATCC29213) (Staphylococcus aureus) and below 0.098 µM in experiment [1] (Klebsiella pneumoniae).

On to `CCNc1cc(F)c(F)c2c1[nH]c1ncc(-c3cnc4c(c3)c(=O)c(C(=O)O)cn4C)c(N3CCC(N(C)C)C3)c12` (stereo not drawn) [Example 1.104], for which the IC50 in the experiment with A. baumannii (ATCC17978) (setting [2]) is 0.137 µM; in the experiment with S. aureus (ATCC29213) (Staphylococcus aureus) it was below 0.098 µM; in experiment [1] (Klebsiella pneumoniae), below 0.098 µM.

Regarding `CNc1c(F)cc(F)c2c1[nH]c1ncc(-c3cnc4c(c3)c(=O)c(C(=O)O)cn4C)c(N3CCOCC3)c12` [Example 1.105], the 50% inhibitory concentration (IC50) with A. baumannii (ATCC17978) (setting [2]) is 0.216 µM; in the experiment with S. aureus (ATCC29213) (Staphylococcus aureus), 5.22 µM; in experiment [1] (Klebsiella pneumoniae), below 0.098 µM.

On to `CNc1c(F)cc(F)c2c1[nH]c1ncc(-c3cnc4c(c3)c(=O)c(C(=O)O)cn4C3CCNC3)c(N(C)C)c12` (stereo not drawn) [Example 1.107], for which the concentration for half-maximal inhibition (IC50) with A. baumannii (ATCC17978) (setting [2]) is 0.699 µM; with S. aureus (ATCC29213) (Staphylococcus aureus) it was 0.189 µM; in experiment [1] (Klebsiella pneumoniae), below 0.098 µM.

Regarding `CNc1cc(F)c(F)c2c1[nH]c1ncc(-c3cnc4c(c3)c(=O)c(C(=O)O)cn4C)c(N3CCC(F)(CN(C)C)C3)c12` (stereo not drawn) [Example 1.108], the IC50 in the experiment on A. baumannii (ATCC17978) (setting [2]) was 0.088 µM; with S. aureus (ATCC29213) (Staphylococcus aureus), below 0.098 µM; in experiment [1] (Klebsiella pneumoniae), below 0.098 µM.

In the case of `CNc1cc(F)cc2c1[nH]c1ncc(-c3cnc4c(c3)c(=O)c(C(=O)O)cn4C)c(N3CCC(F)(CN(C)C)C3)c12` (stereo not drawn) [Example 1.109], the IC50 in the experiment on A. baumannii (ATCC17978) (setting [2]) is 0.066 µM; with S. aureus (ATCC29213) (Staphylococcus aureus) it was below 0.098 µM; in experiment [1] (Klebsiella pneumoniae), below 0.098 µM.

For the molecule `CNc1cc(F)cc2c1[nH]c1ncc(-c3cnc4c(c3)c(=O)c(C(=O)O)cn4C)c(N3CC4[C@@H](C3)OCCN4C)c12` (stereo partly drawn) [Example 1.112], the values for the IC50 (in the experiment with A. baumannii (ATCC17978) (setting [2]); in the experiment with S. aureus (ATCC29213) (Staphylococcus aureus); in experiment [1] (Klebsiella pneumoniae)) were 0.334 µM, below 0.098 µM and below 0.098 µM, respectively.

For the molecule `CNc1cc(F)cc2c1[nH]c1ncc(-c3cnc4c(c3)c(=O)c(C(=O)O)cn4C)c(N3CCC(NC4CC4)C3)c12` (stereo not drawn) [Example 1.114], the concentration for half-maximal inhibition (IC50) is 0.103 µM with A. baumannii (ATCC17978) (setting [2]), below 0.098 µM in the experiment on S. aureus (ATCC29213) (Staphylococcus aureus) and below 0.098 µM in experiment [1] (Klebsiella pneumoniae).

For the molecule `CNc1cc(F)c(F)c2c1[nH]c1ncc(-c3cnc4c(c3)c(=O)c(C(=O)O)cn4C)c(N3CCC(NC4CC4)C3)c12` (stereo not drawn) [Example 1.115], the IC50 in the experiment on A. baumannii (ATCC17978) (setting [2]) is 0.049 µM; with S. aureus (ATCC29213) (Staphylococcus aureus), below 0.098 µM; in experiment [1] (Klebsiella pneumoniae), below 0.098 µM.

As to `CNc1cc(F)c(F)c2c1[nH]c1ncc(-c3cnc4c(c3)c(=O)c(C(=O)O)cn4C3CCN(C)C3)c(N(C)C)c12` (stereo not drawn) [Example 1.130], the IC50 in the experiment with A. baumannii (ATCC17978) (setting [2]) was 0.132 µM; in the experiment on S. aureus (ATCC29213) (Staphylococcus aureus) it was below 0.098 µM; in experiment [1] (Klebsiella pneumoniae), below 0.098 µM.

For `CNc1cc(F)cc2c1[nH]c1ncc(-c3cnc4c(c3)c(=O)c(C(=O)O)cn4C)c(N3CCC(CNC4CC4)C3)c12` (stereo not drawn) [Example 1.136], the IC50 in the experiment on A. baumannii (ATCC17978) (setting [2]) was 0.172 µM; in the experiment on S. aureus (ATCC29213) (Staphylococcus aureus), below 0.098 µM; in experiment [1] (Klebsiella pneumoniae), below 0.098 µM.

As to `CNc1cc(F)c(F)c2c1[nH]c1ncc(-c3cnc4c(c3)c(=O)c(C(=O)O)cn4C)c(N3CCC(CNC4CC4)C3)c12` (stereo not drawn) [Example 1.137], the IC50 in the experiment with A. baumannii (ATCC17978) (setting [2]) is 0.151 µM; in the experiment with S. aureus (ATCC29213) (Staphylococcus aureus), below 0.098 µM; in experiment [1] (Klebsiella pneumoniae), below 0.098 µM.

On to `CNc1cc(F)c(F)c2c1[nH]c1ncc(-c3cnc4c(c3)c(=O)c(C(=O)O)cn4C)c(N3CCC(CN(C)CCOC)C3)c12` (stereo not drawn) [Example 1.142], for which the concentration for half-maximal inhibition (IC50) in the experiment with A. baumannii (ATCC17978) (setting [2]) is 0.195 µM; in the experiment on S. aureus (ATCC29213) (Staphylococcus aureus), below 0.098 µM; in experiment [1] (Klebsiella pneumoniae), below 0.098 µM.

Source of the values: patent US10662203B2, “Pyrido[2,3-b]indole compounds for the treatment and prophylaxis of bacterial infection” (Hoffmann-La Roche Inc., priority 2017, dated 2020).
